Molecules are shown by their SMILES. Like-named read-outs stand apart in the source and are kept apart here.

The subject of one experiment is Tyk2-pSTAT4. The experiment in a line: IL-12 induced pSTAT4 in human PBMC. Type of experiment: cell-based. The note with it: read-out: Tyk2-pSTAT4 EC50. How it is done: Human PBMC are isolated from buffy coat and are stored frozen for assays as needed. Cells for assay are thawed and resuspended in complete media containing serum, then cells are diluted to 1.67 E6 cells/ml so that 120 μl per well is 200,000 cells. 15 μl of compound or DMSO is added to the well at the desired concentrations and incubated at 1 hr at 37 C. 15 μl of stimulus (final concentration of 1.7 ng/mL IL-12) is added for 30 minutes prior to pSTAT4 and total STAT4 analysis using cell lysates prepared and analyzed by MSD reagents as per manufacturer protocol. The final DMSO concentration of compound in the assay is 0.1%.

Another experiment deals with JAK2-pSTAT5. The experiment in a line: GM-CSF induced pSTAT5 in human PBMC. As to conditions: read-out: JAK2-pSTAT5 EC50. It is filed as cell-based. How it is done: Human PBMC are isolated from buffy coat and are stored frozen for assays as needed. […] 15 μl of compound or DMSO is added to the well at the desired concentrations and incubated at 1 hr at 37 C. 15 μl of stimulus (final concentration of 1.7 ng/mL IL-12) is added for 30 minutes prior to pSTAT4 and total STAT4 analysis using cell lysates prepared and analyzed by MSD reagents as per manufacturer protocol. The final DMSO concentration of compound in the assay is 0.1%.
Cells are prepared for analysis as in the above procedure and 15 μl of GM-CSF (final concentration 5 ng/mL) is added for 20 minutes prior to pSTAT5 and total STAT5 analysis using cell lysates prepared and analyzed by MSD reagents as per manufacturer protocol. The final DMSO concentration of compound in the assay is 0.1%.

In a further experiment the target is TYK2 (Homo sapiens (Human), UniProt P29597). The experiment in a line: Tyk2 activity inhibition assay (radioactive kinase assay / Caliper assay). It is filed as biochemical. The method in brief: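 Radiometric format: TYK2 with peptide substrate (20 μM) and 33P-ATP at 10 μM in HEPES pH 7.5, 1% DMSO, 120 min at room temp, P81 paper capture. Caliper mobility-shift format: TYK2 9.75 nM, peptide 30 at 3 uM, ATP 16 uM (also 1 mM), 25 min at 28° C.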

The target in the next experiment is JAK2 (Homo sapiens (Human), UniProt O60674). The experiment in a line: JAK2 activity inhibition assay (radioactive kinase assay / Caliper assay). It is filed as biochemical. The note with it: read-out: JAK2 Ki. The gist of the method: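 Mobility-shift (Caliper) read-out of phosphorylated peptide substrate. Compound diluted in 25 mM HEPES pH 7.5, 0.01% Brij-35, 0.01% Triton, 0.5 mM EGTA; enzyme added, then peptide plus ATP in 10 mM MgCl2. Incubated 25 min at 28° C, stopped with EDTA buffer.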

[1] abbreviates: IL-12 induced pSTAT4, human PBMC.
[2] abbreviates: GM-CSF induced pSTAT5, human PBMC.

Chain of JAK2 (O60674 whole entry): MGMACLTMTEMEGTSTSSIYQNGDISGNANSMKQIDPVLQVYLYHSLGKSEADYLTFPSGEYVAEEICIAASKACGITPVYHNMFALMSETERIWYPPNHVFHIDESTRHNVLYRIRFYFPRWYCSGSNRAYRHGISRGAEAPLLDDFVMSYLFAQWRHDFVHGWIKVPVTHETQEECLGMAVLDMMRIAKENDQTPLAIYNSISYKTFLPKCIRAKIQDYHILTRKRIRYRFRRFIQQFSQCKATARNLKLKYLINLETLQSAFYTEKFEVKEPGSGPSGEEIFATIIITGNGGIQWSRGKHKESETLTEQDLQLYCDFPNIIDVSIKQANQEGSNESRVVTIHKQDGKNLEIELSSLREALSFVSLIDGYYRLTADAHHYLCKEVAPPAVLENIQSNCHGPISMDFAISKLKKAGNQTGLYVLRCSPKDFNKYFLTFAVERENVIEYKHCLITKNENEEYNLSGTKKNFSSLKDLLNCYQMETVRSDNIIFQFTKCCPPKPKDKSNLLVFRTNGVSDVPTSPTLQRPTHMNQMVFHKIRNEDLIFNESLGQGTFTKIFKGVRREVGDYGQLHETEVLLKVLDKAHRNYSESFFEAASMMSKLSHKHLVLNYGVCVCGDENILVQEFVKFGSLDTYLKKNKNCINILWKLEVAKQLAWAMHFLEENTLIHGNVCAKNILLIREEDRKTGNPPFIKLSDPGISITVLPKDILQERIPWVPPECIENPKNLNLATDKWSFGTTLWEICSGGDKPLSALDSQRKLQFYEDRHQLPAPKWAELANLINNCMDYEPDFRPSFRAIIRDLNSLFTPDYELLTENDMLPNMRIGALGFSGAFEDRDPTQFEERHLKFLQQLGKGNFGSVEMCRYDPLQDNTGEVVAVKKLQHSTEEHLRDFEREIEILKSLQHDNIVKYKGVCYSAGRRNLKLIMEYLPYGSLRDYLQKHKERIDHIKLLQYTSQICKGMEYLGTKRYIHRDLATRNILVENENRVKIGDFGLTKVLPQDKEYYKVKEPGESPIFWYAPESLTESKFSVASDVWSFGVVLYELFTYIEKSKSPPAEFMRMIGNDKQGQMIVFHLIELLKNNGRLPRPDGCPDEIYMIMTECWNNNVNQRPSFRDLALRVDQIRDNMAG
Chain of TYK2 (P29597 whole entry): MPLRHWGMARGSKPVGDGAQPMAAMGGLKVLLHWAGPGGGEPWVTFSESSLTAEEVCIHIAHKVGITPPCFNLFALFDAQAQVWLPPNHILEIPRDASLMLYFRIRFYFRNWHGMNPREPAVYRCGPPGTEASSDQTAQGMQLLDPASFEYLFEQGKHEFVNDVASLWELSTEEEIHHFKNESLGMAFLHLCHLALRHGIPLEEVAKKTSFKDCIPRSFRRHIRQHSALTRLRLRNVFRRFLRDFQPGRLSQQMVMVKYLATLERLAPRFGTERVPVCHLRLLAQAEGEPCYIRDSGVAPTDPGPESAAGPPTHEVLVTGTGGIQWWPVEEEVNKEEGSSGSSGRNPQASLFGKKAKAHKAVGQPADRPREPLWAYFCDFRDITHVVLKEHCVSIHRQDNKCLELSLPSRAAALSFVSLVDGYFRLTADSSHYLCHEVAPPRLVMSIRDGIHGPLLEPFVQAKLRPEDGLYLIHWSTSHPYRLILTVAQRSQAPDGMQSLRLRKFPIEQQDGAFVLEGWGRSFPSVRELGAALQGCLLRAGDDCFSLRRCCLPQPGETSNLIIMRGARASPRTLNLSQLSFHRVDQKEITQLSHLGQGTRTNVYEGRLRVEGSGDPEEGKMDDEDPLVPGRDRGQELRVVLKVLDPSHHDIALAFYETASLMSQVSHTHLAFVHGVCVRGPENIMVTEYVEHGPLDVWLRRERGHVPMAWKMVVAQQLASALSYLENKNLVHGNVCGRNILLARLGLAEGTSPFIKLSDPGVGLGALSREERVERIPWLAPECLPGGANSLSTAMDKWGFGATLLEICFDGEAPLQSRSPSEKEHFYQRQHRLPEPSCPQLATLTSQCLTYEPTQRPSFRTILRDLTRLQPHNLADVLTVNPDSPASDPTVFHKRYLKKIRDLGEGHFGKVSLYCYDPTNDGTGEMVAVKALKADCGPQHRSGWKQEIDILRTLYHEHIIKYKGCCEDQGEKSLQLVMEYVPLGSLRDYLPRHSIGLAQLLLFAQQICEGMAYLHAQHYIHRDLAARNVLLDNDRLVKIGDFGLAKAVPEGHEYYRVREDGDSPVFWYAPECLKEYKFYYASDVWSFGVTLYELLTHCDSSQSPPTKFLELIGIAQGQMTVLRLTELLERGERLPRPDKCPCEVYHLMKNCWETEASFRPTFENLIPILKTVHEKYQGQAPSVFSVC

Broadly, the EC50 is the concentration that produces a half-maximal response. `Cc1ccc(Nc2nc(-c3c(F)cccc3F)nc3c2C(=O)NC3)cc1` [Compound I-21, 2-(2,6-difluorophenyl)-4-(p-tolylamino)-6,7-dihydro-5H-pyrrolo[3,4-d]pyrimidin-5-one]: the EC50 was less than 2000 nM with Tyk2-pSTAT4 (Homo sapiens, PBMC) and greater than 20000 nM with JAK2-pSTAT5 (Homo sapiens, PBMC).
The Ki is the equilibrium dissociation constant of an inhibitor or competing ligand from its target. Regarding `O=C1NCc2nc(-c3c(F)cccc3F)cc(Nc3ccc(N4CC5(COC5)C4)cn3)c21` [Compound I-144, 4-((5-(2-oxa-6-azaspiro[3.3]heptan-6-yl)pyridin-2-yl)amino)-2-(2,6-difluorophenyl)-6,7-dihydro-5H-pyrrolo[3,4-b]pyridin-5-one], the Ki at TYK2 and on JAK2 was less than 10 nM in each case. Further, the EC50 in the experiment with Tyk2-pSTAT4 (setting [1]) was less than 2000 nM.
`CC[C@@]1(c2ccc(Nc3nc(-c4c(F)cccc4F)nc4c3C(=O)NC4)cc2)CCNC1=O` [Compound I-176, (S)-2-(2,6-difluorophenyl)-4-((4-(3-ethyl-2-oxopyrrolidin-3-yl)phenyl)amino)-6,7-dihydro-5H-pyrrolo[3,4-d]pyrimidin-5-one]: the Ki on JAK2 lay in the range of 10 to 100 nM. Moreover, the EC50 in the experiment with Tyk2-pSTAT4 (setting [1]) is less than 2000 nM; with JAK2-pSTAT5 (setting [2]) it was 2000 to 20000 nM.
For `CC(C)Oc1ccc(Nc2nc(-c3c(F)cccc3F)nc3c2C(=O)NC3)cc1` [Compound I-181, 2-(2,6-difluorophenyl)-4-((4-isopropoxyphenyl)amino)-6,7-dihydro-5H-pyrrolo[3,4-d]pyrimidin-5-one], the Ki on JAK2 lay in the range of 100 to 1000 nM. Also, the EC50 was less than 2000 nM in the experiment with Tyk2-pSTAT4 (setting [1]) and greater than 20000 nM in the experiment on JAK2-pSTAT5 (setting [2]).
As to `CCNC(=O)c1ccc(Nc2nc(-c3c(F)cccc3F)nc3c2C(=O)NC3)cc1` [Compound I-195, 4-((2-(2,6-difluorophenyl)-5-oxo-6,7-dihydro-5H-pyrrolo[3,4-d]pyrimidin-4-yl)amino)-N-ethylbenzamide], the Ki on JAK2 lay in the range of 100 to 1000 nM. Further, the EC50 is less than 2000 nM in the experiment on Tyk2-pSTAT4 (Homo sapiens, PBMC) and greater than 20000 nM with JAK2-pSTAT5 (setting [2]).
In the case of `O=C1NCc2nc(-c3c(F)cccc3F)cc(Nc3ccc(N4CCCC4)cn3)c21` [Compound I-205, 2-(2,6-difluorophenyl)-4-((5-(pyrrolidin-1-yl)pyridin-2-yl)ami-no)-6,7-dihydro-5H-pyrrolo[3,4-b]pyridin-5-one], the 50% effective concentration (EC50) in the experiment on Tyk2-pSTAT4 (setting [1]) was less than 2000 nM; in the experiment with JAK2-pSTAT5 (setting [2]) it was 2000 to 20000 nM.
Turning to `CC1(O)CN(c2ccc(Nc3cc(-c4c(F)cccc4F)nc4c3C(=O)NC4)nc2)C1` [Compound I-228, 2-(2,6-difluorophenyl)-4-((5-(3-hydroxy-3-methylazetidin-1-yl)pyridin-2-yl)amino)-6,7-dihydro-5H-pyrrolo[3,4-b]pyridin-5-one], the Ki at JAK2 is 10 to 100 nM. The concentration for a half-maximal effect (EC50) with Tyk2-pSTAT4 (Homo sapiens, PBMC) was less than 2000 nM; in the experiment with JAK2-pSTAT5 (setting [2]) it was 2000 to 20000 nM.
In the same order, the values of `O=C1NCc2nc(-c3c(F)cccc3F)cc(Nc3ccc(N4CC(F)(F)C4)cn3)c21` [Compound I-229, 4-((5-(3,3-difluoroazetidin-1-yl)pyridin-2-yl)amino)-2-(2,6-difluorophenyl)-6,7-dihydro-5H-pyrrolo[3,4-b]pyridin-5-one] are 10 to 100 nM, less than 2000 nM and 2000 to 20000 nM.
Take `O=C1NCc2nc(-c3c(F)cccc3F)cc(Nc3ccc(N4CCOCC4)nc3)c21` [Compound I-238, 2-(2,6-difluorophenyl)-4-((6-morpholinopyridin-3-yl)amino)-6,7-dihydro-5H-pyrrolo[3,4-b]pyridin-5-one]: on JAK2, the Ki is 100 to 1000 nM. For the same compound, the EC50 in the experiment with Tyk2-pSTAT4 (setting [1]) is less than 2000 nM; in the experiment on JAK2-pSTAT5 (setting [2]) it was greater than 20000 nM.
On the same counts, the results for `CC(C)N1CCN(c2ccc(Nc3cc(-c4c(F)cccc4F)nc4c3C(=O)NC4)nc2)C(=O)C1` [Compound I-242, 2-(2,6-difluorophenyl)-4-((5-(4-isopropyl-2-oxopiperazin-1-yl)pyridin-2-yl)amino)-6,7-dihydro-5H-pyrrolo[3,4-b]pyridin-5-one] are 10 to 100 nM, less than 2000 nM and 2000 to 20000 nM.
`CC(C)N1CCN(C(=O)c2ccc(Nc3cc(-c4c(F)cccc4F)nc4c3C(=O)NC4)cc2)CC1` [Compound I-243, 2-(2,6-difluorophenyl)-4-((4-(4-isopropylpiperazine-1-carbo-nyl)phenyl)amino)-6,7-dihydro-5H-pyrrolo[3,4-b]pyridin-5-one]: the Ki on JAK2 is 10 to 100 nM. The EC50 in the experiment with Tyk2-pSTAT4 (setting [1]) was less than 2000 nM; in the experiment on JAK2-pSTAT5 (setting [2]), 2000 to 20000 nM.
In the same order, the values of `O=C1NCc2nc(-c3c(F)cccc3F)cc(Nc3ccc(N4CCN(CC(F)F)CC4)cn3)c21` [Compound I-247, 4-((5-(4-(2,2-difluoroethyl)piperazin-1-yl)pyridin-2-yl)amino)-2-(2,6-difluorophenyl)-6,7-dihydro-5H-pyrrolo[3,4-b]pyridin-5-one] are 10 to 100 nM, less than 2000 nM and less than 2000 nM.
In the same order, the values of `O=C1NCc2nc(-c3c(F)cccc3F)cc(Nc3ccc(N4CCOCC4=O)cn3)c21` [Compound I-248, 4-(6-((2-(2,6-difluorophenyl)-5-oxo-6,7-dihydro-5H-pyrrolo[3,4-b]pyridin-4-yl)amino)pyridin-3-yl)morpholin-3-one] are 10 to 100 nM, less than 2000 nM and less than 2000 nM.
In the same order, the values of `O=C1NCc2nc(-c3c(F)cccc3F)cc(Nc3ccc(N4CCCOCC4)cn3)c21` [Compound I-253, 4-((5-(1,4-oxazepan-4-yl)pyridin-2-yl)amino)-2-(2,6-difluoro-phenyl)-6,7-dihydro-5H-pyrrolo[3,4-b]pyridin-5-one] are 10 to 100 nM, less than 2000 nM and greater than 20000 nM.
With `CC(C)N1CCN(c2ccc(Nc3cc(-c4c(F)cccc4F)nc4c3C(=O)NC4)nc2)CC1` [Compound I-256, 2-(2,6-difluorophenyl)-4-((5-(4-isopropylpiperazin-1-yl)pyridin-2-yl)amino)-6,7-dihydro-5H-pyrrolo[3,4-b]pyridin-5-one], the EC50 in the experiment on Tyk2-pSTAT4 (setting [1]) and in the experiment with JAK2-pSTAT5 (setting [2]) was less than 2000 nM each time.
Consider `O=C1NCc2nc(-c3c(F)cccc3F)cc(Nc3ccc(C(=O)N4CCCCC4)cc3)c21` [Compound I-257, 2-(2,6-difluorophenyl)-4-((4-(piperidine-1-carbonyl)phenyl)-amino)-6,7-dihydro-5H-pyrrolo[3,4-b]pyridin-5-one], for which the Ki at JAK2 lay in the range of 10 to 100 nM. Moreover, the EC50 in the experiment with Tyk2-pSTAT4 (setting [1]) was less than 2000 nM; in the experiment on JAK2-pSTAT5 (setting [2]), 2000 to 20000 nM.
Turning to `CCNC(=O)c1ccc(Nc2cc(-c3c(F)cccc3F)nc3c2C(=O)NC3)cn1` [Compound I-260, 5-((2-(2,6-difluorophenyl)-5-oxo-6,7-dihydro-5H-pyrrolo[3,4-b]pyridin-4-yl)amino)-N-ethylpicolinamide], at JAK2, the Ki lay in the range of 100 to 1000 nM. Moreover, the values for the EC50 in the experiment with Tyk2-pSTAT4 (setting [1]) and with JAK2-pSTAT5 (setting [2]) were less than 2000 nM and greater than 20000 nM, respectively.
As to `O=C1NCc2nc(-c3c(F)cccc3F)cc(Nc3ccc(N4CCN(CCC(F)(F)F)CC4)cn3)c21` [Compound I-262, 2-(2,6-difluorophenyl)-4-((5-(4-(3,3,3-trifluoropropyl)piperazin-1-yl)pyridin-2-yl)amino)-6,7-dihydro-5H-pyrrolo[3,4-b]pyridin-5-one], on JAK2, the Ki was in the range of 10 to 100 nM. For the same compound, the EC50 with Tyk2-pSTAT4 (setting [1]) and in the experiment on JAK2-pSTAT5 (setting [2]) was less than 2000 nM in each case.
For the compound `C[C@@H]1CCC[C@@H](C)N1c1ccc(Nc2cc(-c3c(F)cccc3F)nc3c2C(=O)NC3)nc1` [Compound I-265, 2-(2,6-difluorophenyl)-4-((5-((2R,6R)-2,6-dimethylpiperidin-1-yl)pyridin-2-yl)amino)-6,7-dihydro-5H-pyrrolo[3,4-b]pyridin-5-one], at JAK2, the Ki was in the range of 10 to 100 nM. In addition, the EC50 in the experiment on Tyk2-pSTAT4 (setting [1]) is less than 2000 nM; in the experiment with JAK2-pSTAT5 (setting [2]), 2000 to 20000 nM.
As for `CC1(C)CCC(=O)N1c1ccc(Nc2cc(-c3c(F)cccc3F)nc3c2C(=O)NC3)nc1` [Compound I-272, 2-(2,6-difluorophenyl)-4-((5-(2,2-dimethyl-5-oxopyrrolidin-1-yl)pyridin-2-yl)amino)-6,7-dihydro-5H-pyrrolo[3,4-b]pyridin-5-one], the EC50 in the experiment on Tyk2-pSTAT4 (setting [1]) and with JAK2-pSTAT5 (setting [2]) was less than 2000 nM in each case.
With `N#Cc1cccc(F)c1-c1cc(Nc2ccc(N3CCOCC3)cn2)c2c(n1)CNC2=O` [Compound I-281, 3-fluoro-2-(4-((5-morpholinopyridin-2-yl)amino)-5-oxo-6,7-dihydro-5H-pyrrolo[3,4-b]pyridin-2-yl)benzonitrile], the Ki at TYK2 and at JAK2 was less than 10 nM each time.

For the origin of these results see patent US10196390B2, “TYK2 inhibitors and uses thereof” (Nimbus Lakshmi, Inc., priority 2014, dated 2019).
